# Assay results: patent US4740518A, “4H-benzo(4,5)cyclohepta(1,2-B)thiophene derivatives” (Sandoz Ltd., priority 1983, dated 1988)
# Columns and labels:
# [1] = Adjuvant arthritis test in the rat (Test A); assay type: in vivo; conditions: for ED50: Rattus norvegicus
# Procedure: For this test adjuvant arthritis is induced according to the method of Pearson and Wood, "Arthr. Rheum."2, 440 (1959). Compounds of the invention, e.g. compounds of formula I, are active in this test against developing and established arthritis at dosages of from 5 to 30 mg/kg/day.
# [2] = Yeast-induced fever test in the rat (Test B); assay type: in vivo, male rats (Sprague-Dawley); conditions: for ED50: Rattus norvegicus, read-out: Yeast fever ED50
# Procedure: For this test male rats (Sprague-Dawley) of 130-180 g are fasted overnight. Body temperature is measured the following morning using a thermistor rectal probe connected to a telethermometer. 1 ml/100 g body weight of a 15% suspension of dried baker's yeast in saline is then injected s.c.. Body temperature is measured 2 hours later and this value taken as the initial temperature. 6 hours after yeast injection the test animals receive an oral dosage of the test substance suspended in 0.5% tragacanth or tragacanth alone (control). Body temperature is again measured after a further 2 hours.
# Increase in temperature for each rat is calculated and expressed as a % of average increase determined in the control group (ca. 2.3° C. above normal). The ED50, estimated by regression analysis, is taken as the dosage at which increase in rectal temperature is 50% of that in the control group. Compounds of the invention, e.g. compounds of formula I, are active in this test at dosages of from 15 to 60 mg/kg.
# [3] = Arthritis pain test in the rat (Test C); assay type: in vivo, male rats (OFA); conditions: for ED50: Rattus norvegicus, read-out: Arthritis pain ED50
# Procedure: For this test male rats (OFA) of 110-120 g are treated with 0.1 ml of a Mycobacterium butyricum suspension in paraffin oil (0.6 mg Mycobact./0.1 ml oil) injected i.c. into the tail root. Marked arthritis in the hind-paws develops ca. 12 days after treatment. 30 mins. before administration of test-substance, control measurement is performed by flexing the foot joint of the right or left hind-paw using a Statham transducer until vocalisation occurs. […] Test substance is administered orally and the flexion procedure repeated 1,3 and 5 hours subsequently. The pressure at which vocalisation occurs is noted, the value recorded for each rat at each interval being the average value of three successive measurements. Animals in which the vocalisation threshold is doubled with respect to the control measurement are considered to be protected. The ED50 estimated for each post-treatment time according to the Probit method is taken as the dosage at which 50% of animals are protected. Compounds of the invention, e.g. compounds of formula I, are active in this test at dosages of from 3.2 to 100 mg/kg.
structure (smiles),measurement,setting,value
"COC1=Cc2ccccc2C(=CC(=O)O)c2ccsc21 [A, [10-methoxy-4H-benzo[4,5]cyclohepta[1,2-b]thiophen-4-ylidene]-acetic acid]",ED50,"[1]; Test A, developing arthritis, compound A as cis/trans (Z,E) isomer mixture, read-out: Developing arthritis ED50",15 mg/kg
same,ED50,"[1]; Test A, developing arthritis, using cis (Z) isomer, read-out: Developing arthritis ED50",8 mg/kg
same,ED50,"[1]; Test A, established arthritis, compound A as cis/trans (Z,E) isomer mixture, read-out: Established arthritis ED50",15 mg/kg
same,ED50,"[1]; Test A, established arthritis, using cis (Z) isomer, read-out: Established arthritis ED50",16 mg/kg
same,"indicated daily dosage relative to acetylsalicylic acid, anti-inflammatory therapy",[1]; pure cis-isomer,1/15
same,ED50,"[2]; Test B, oral, temperature 2 h after dosing, compound A as cis (Z) isomer",22 mg/kg
same,"indicated daily dosage relative to acetylsalicylic acid, anti-pyretic therapy",[2]; cis-isomer,1/7
same,ED50,"[3]; Test C, oral, 50% of animals protected, compound A as cis (Z) isomer",7 mg/kg
same,"indicated daily dosage relative to acetylsalicylic acid, analgesic therapy",[3]; cis-isomer,1/12
"CC(=O)Oc1ccccc1C(=O)O [B, acetylsalicyclic acid, reference compound]",ED50,[1]; read-out: Developing arthritis ED50,140 mg/kg
same,ED50,[1]; read-out: Established arthritis ED50,240 mg/kg
same,ED50,"[2]; po, 2 h",161 mg/kg
same,ED50,[3]; po,90 mg/kg
